Patent publication US20260256926A1, “BIFACIAL PEPTIDE NUCLEIC ACID PROBES AND METHODS OF USING THEREOF” (Ohio State Innovation Foundation, priority 2022, published 2026)

Legend:
[1] = cited from earlier work
[2] = parent dye free in solution; cited from earlier work
[3] = tested on: duplex nucleic acid substrates bearing single abasic, single NCP, and tandem NCP sites; experiment: Fluorogenic probe library screen, overall; format: binding; details: 2 μM probe, 2 μM duplex
Method: (§1) Fluorescence Measurements. Samples for screening were prepared as solutions with 50 mM HEPES (pH 7.5), 100 mM NaCl, 2 μM dsDNA/dsRNA, 2 μM probe (4 μM probe with tandem mismatch). Prior to use, nucleic acids were annealed (95° C./5 min, slow cool to RT over 2 h) to pre-form the duplex. Prepared samples were incubated at room temperature for 30 min before measuring fluorescence (Thermo Fisher Nanodrop 3300, excitation/emission=470/522 nm). For each measurement, 2 μl of sample was applied to the center of the nanodrop probe. All fluorescence values are the average of triplicate measurements, starting from fresh sample preparation. Error bars indicate standard deviation. The relative intensity (turn-on) was calculated using the equation below.

[4] = tested on: tandem NCP sites (2×2 internal bulges) in dsRNA; experiment: Tandem NCP RNA library screen; format: binding; details: 4 μM probe, 2 μM RNA duplex
Method: as §1

SMILES: O=c1[nH]c(=O)[nH]c(=O)[nH]1 [cyanuric acid]
- pKa [1]: ~ 6.9

SMILES: CN1C(=Cc2cc[n+](C)c3ccccc23)Sc2ccccc21 [thiazole orange]
- quantum yield in solution [2]: ~ 10^−4

SMILES: Nc1nc(=O)[nH]c(=O)[nH]1 [ammelide]
- pKa [1]: ~ 6.9

SMILES: Oc1nc(O)nc(O)n1 [CA]
- binding in the abasic or single NCP screens [3]: did not show any binding
- targeting of AG/CU internal bulge [4]: could be targeted
